We go through 25 compounds from patent publication US12435092B2, “Substituted imidazo[1,2-A]quinazolines as inhibitors of PARG” (858 Therapeutics, Inc., priority 2022, dated 2025).

The target in this experiment is T1, cellular PARG (Homo sapiens, UniProt Q86W56).
T1 construct: endogenous in cells; host or cells: HeLa
The experiment can be described thus: Nuclear PAR accumulation assay (immunofluorescence high-content imaging). It counts as cell-based. As to conditions: HeLa cells, 1 hour compound treatment then MMS 50 μg/mL for an additional hour. The procedure, abridged:
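HeLa cells pretreated 1 h at 37 °C with compound, then 1 h with 50 μg/mL MMS (final), methanol-fixed and immunostained for PAR with DAPI nuclear counterstain. Nuclear PAR intensity and percent PAR-positive cells quantified by high-content imaging (≥1,000 cells/well). IC50 by four-parameter logistic fit, normalized to 0.1% DMSO and reference-compound controls.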

T1 sequence (Q86W56 whole entry): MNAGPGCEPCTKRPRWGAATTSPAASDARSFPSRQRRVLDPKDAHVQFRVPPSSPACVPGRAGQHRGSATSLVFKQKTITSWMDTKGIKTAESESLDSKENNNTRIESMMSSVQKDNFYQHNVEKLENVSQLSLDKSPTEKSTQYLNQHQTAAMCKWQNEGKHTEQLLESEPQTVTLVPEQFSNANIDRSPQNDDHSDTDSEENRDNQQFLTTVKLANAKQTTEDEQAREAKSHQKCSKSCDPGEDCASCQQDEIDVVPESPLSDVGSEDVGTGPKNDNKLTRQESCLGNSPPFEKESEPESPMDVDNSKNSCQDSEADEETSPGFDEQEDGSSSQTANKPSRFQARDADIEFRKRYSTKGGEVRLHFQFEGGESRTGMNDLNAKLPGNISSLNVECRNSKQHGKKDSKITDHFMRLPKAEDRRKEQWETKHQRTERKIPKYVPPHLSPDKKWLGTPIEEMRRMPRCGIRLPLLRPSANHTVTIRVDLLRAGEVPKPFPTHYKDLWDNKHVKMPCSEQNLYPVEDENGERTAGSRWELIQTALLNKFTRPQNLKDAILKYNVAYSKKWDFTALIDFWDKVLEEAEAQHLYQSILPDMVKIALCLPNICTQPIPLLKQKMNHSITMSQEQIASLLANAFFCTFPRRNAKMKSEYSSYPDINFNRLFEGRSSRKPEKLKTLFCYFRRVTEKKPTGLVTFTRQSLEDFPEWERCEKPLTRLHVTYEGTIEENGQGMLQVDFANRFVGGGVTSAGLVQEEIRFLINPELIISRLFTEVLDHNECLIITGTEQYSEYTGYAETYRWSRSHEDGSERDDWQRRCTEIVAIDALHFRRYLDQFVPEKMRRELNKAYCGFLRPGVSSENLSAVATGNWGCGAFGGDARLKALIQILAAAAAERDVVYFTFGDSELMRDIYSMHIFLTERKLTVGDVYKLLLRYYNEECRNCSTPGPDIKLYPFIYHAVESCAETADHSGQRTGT

The IC50 is the concentration that gives 50% inhibition. Read a low IC50 as higher potency. Compound `C[C@@H]1N2C(=NC1(C)C)N(Cc1cnn(C)c1)C(=O)c1cc(S(=O)(=O)NC3(C)CC3)ccc12` [Example 110, (S)-1,2,2-trimethyl-4-((1-methyl-1H-pyrazol-4-yl)methyl)-N-(1-methylcyclopropyl)-5-oxo-1,2,4,5-tetrahydroimidazo[1,2-a]quinazoline-7-sulfonamide] returned an IC50 of 100 to 1000 nM.
Compound `C[C@H]1N2C(=NC1(C)C)N(Cc1cnn(C)c1)C(=O)c1cc(S(=O)(=O)NC3(C)CC3)ccc12` [Example 111, (R)-1,2,2-trimethyl-4-((1-methyl-1H-pyrazol-4-yl)methyl)-N-(1-methylcyclopropyl)-5-oxo-1,2,4,5-tetrahydroimidazo[1,2-a]quinazoline-7-sulfonamide] displayed an IC50 of at most 100 nM.
`Cc1ncc(CN2C(=O)c3cc(S(=O)(=O)NC4(C)CC4)ccc3N3C2=NC[C@H]3C)[nH]1` [Example 112, (R)-1-methyl-4-((2-methyl-1H-imidazol-5-yl)methyl)-N-(1-methylcyclopropyl)-5-oxo-1,2,4,5-tetrahydroimidazo[1,2-a]quinazoline-7-sulfonamide] yielded an IC50 of 1000 to 10000 nM.
Under `[2H]C([2H])(c1sc(C)nc1C)N1C(=O)c2cc(S(=O)(=O)NC3(C)CC3)c(F)cc2N2C1=NC[C@H]2C` [Example 113, (R)-4-(dideutero(2,4-dimethylthiazol-5-yl)methyl)-8-fluoro-1-methyl-N-(1-methylcyclopropyl)-5-oxo-1,2,4,5-tetrahydroimidazo[1,2-a]quinazoline-7-sulfonamide] stands at most 100 nM; under `C[C@@H]1CN=C2N1c1ccc(S(=O)(=O)NC3(C)CC3)cc1C(=O)N2C1(c2cnn(C)c2)CC1` [Example 114, (R)-1-methyl-4-(1-(1-methyl-1H-pyrazol-4-yl)cydopropyl)-N-(1-methylcyclopropyl)-5-oxo-1,2,4,5-tetrahydroimidazo[1,2-a]quinazoline-7-sulfonamide], 1000 to 10000 nM; under `Cc1ncn(C)c1CN1C(=O)c2cc(S(=O)(=O)NC3(C)CC3)ccc2N2C1=NC[C@H]2C` [Example 115, (R)-4-((1,4-dimethyl-1H-imidazol-5-yl)methyl)-1-methyl-N-(1-methylcyclopropyl)-5-oxo-1,2,4,5-tetrahydroimidazo[1,2-a]quinazoline-7-sulfonamide], 100 to 1000 nM.
Turning to `Cn1cc(CN2C(=O)c3cc(S(=O)(=O)NC4(C)CC4)ccc3N3CC4(COC4)N=C23)cn1` [Example 116, 4-((1-methyl-1H-pyrazol-4-yl)methyl)-N-(1-methylcyclopropyl)-5-oxo-4,5-dihydro-1H-spiro[imidazo[1,2-a]quinazoline-2,3′-oxetane]-7-sulfonamide], the IC50 lay in the range of 100 to 1000 nM.
Under `CCC1(C)CN2C(=N1)N(Cc1cnn(C)c1)C(=O)c1cc(S(=O)(=O)NC3(C)CC3)ccc12` (stereo not shown) [Example 117, 2-ethyl-2-methyl-4-((1-methyl-1H-pyrazol-4-yl)methyl)-N-(1-methylcyclopropyl)-5-oxo-1,2,4,5-tetrahydroimidazo[1,2-a]quinazoline-7-sulfonamide] stands at most 100 nM; under `C[C@@H]1CN=C2N(Cc3cnn4c3CCC4)C(=O)c3cc(S(=O)(=O)NC4(C)CC4)ccc3N21` [Example 118, (R)-4-((5,6-dihydro-4H-pyrrolo[1,2-b]pyrazol-3-yl)methyl)-1-methyl-N-(1-methylcyclopropyl)-5-oxo-1,2,4,5-tetrahydroimidazo[1,2-a]quinazoline-7-sulfonamide], at most 100 nM.
Turning to `C[C@@H]1CN=C2N(Cc3cnn4c3OCCC4)C(=O)c3cc(S(=O)(=O)NC4(C)CC4)ccc3N21` [Example 119, (R)-4-((6,7-dihydro-5H-pyrazolo[5,1-b][1,3]oxazin-3-yl)methyl)-1-methyl-N-(1-methylcyclopropyl)-5-oxo-1,2,4,5-tetrahydroimidazo[1,2-a]quinazoline-7-sulfonamide], the IC50 is at most 100 nM.
Compound `Cc1nc(C)c(CN2C(=O)c3cc(S(=O)(=O)NC4(C)CC4)ccc3N3C2=NC[C@H]3C)[nH]1` [Example 120, (R)-4-((2,4-dimethyl-1H-imidazol-5-yl)methyl)-1-methyl-N-(1-methylcyclopropyl)-5-oxo-1,2,4,5-tetrahydroimidazo[1,2-a]quinazoline-7-sulfonamide] registered an IC50 of 1000 to 10000 nM.
Turning to `Cc1nnsc1CN1C(=O)c2cc(S(=O)(=O)NC3(C)CC3)ccc2N2C1=NC[C@H]2C` [Example 121, (R)-1-methyl-4-((4-methyl-1,2,3-thiadiazol-5-yl)methyl)-N-(1-methylcyclopropyl)-5-oxo-1,2,4,5-tetrahydroimidazo[1,2-a]quinazoline-7-sulfonamide], the IC50 was at most 100 nM.
Under `[2H]C([2H])(c1cnn2c1CCC2)N1C(=O)c2cc(S(=O)(=O)NC3(C)CC3)ccc2N2C1=NC[C@H]2C` [Example 122, (R)-4-(dideutero(5,6-dihydro-4H-pyrrolo[1,2-b]pyrazol-3-yl)methyl)-1-methyl-N-(1-methylcyclopropyl)-5-oxo-1,2,4,5-tetrahydroimidazo[1,2-a]quinazoline-7-sulfonamide] stands at most 100 nM; under `C[C@@H]1CN=C2N(Cc3cnn(C)c3)C(=O)c3cc(S(=O)(=O)NC4(C)CC4)cc(Cl)c3N21` [Example 124, (R)-9-chloro-1-methyl-4-((1-methyl-1H-pyrazol-4-yl)methyl)-N-(1-methylcyclopropyl)-5-oxo-1,2,4,5-tetrahydroimidazo[1,2-a]quinazoline-7-sulfonamide], at most 100 nM; under `COCC1(C)CN2C(=N1)N(Cc1cnn(C)c1)C(=O)c1cc(S(=O)(=O)NC3(C)CC3)ccc12` (stereo not shown) [Example 127, 2-(methoxymethyl)-2-methyl-4-((1-methyl-1H-pyrazol-4-yl)methyl)-N-(1-methylcyclopropyl)-5-oxo-1,2,4,5-tetrahydroimidazo[1,2-a]quinazoline-7-sulfonamide], 100 to 1000 nM.
As to `[2H]C([2H])(c1cnn(C)c1)N1C(=O)c2cc(S(=O)(=O)NC3(C)CC3)cc(Cl)c2N2C1=NC[C@H]2C` [Example 128, (R)-9-chloro-4-(dideutero(1-methyl-1H-pyrazol-4-yl)methyl)-1-methyl-N-(1-methylcyclopropyl)-5-oxo-1,2,4,5-tetrahydroimidazo[1,2-a]quinazoline-7-sulfonamide], the IC50 is at most 100 nM.
Compound `C[C@@H]1CN=C2N(Cc3cnn(C)c3)C(=O)c3cc(S(=O)(=O)NC4(C)CC4)cc(Br)c3N21` [Example 129, (R)-9-bromo-1-methyl-4-((1-methyl-1H-pyrazol-4-yl)methyl)-N-(1-methylcyclopropyl)-5-oxo-1,2,4,5-tetrahydroimidazo[1,2-a]quinazoline-7-sulfonamide] gave an IC50 of at most 100 nM.
As to `C[C@@H]1CN=C2N(Cc3cnn(C)c3)C(=O)c3cc(S(=O)(=O)NC4(C)CC4)cc(N4CCN(C(=O)N(C)C)CC4)c3N21` [Example 130, (R)—N,N-dimethyl-4-(1-methyl-4-((1-methyl-1H-pyrazol-4-yl)methyl)-7-(N-(1-methylcyclopropyl)sulfamoyl)-5-oxo-1,2,4,5-tetrahydroimidazo[1,2-a]quinazolin-9-yl)piperazine-1-carboxamide], the IC50 was at most 100 nM.
`C[C@@H]1CN=C2N(Cc3cnn(C)c3)C(=O)c3cc(S(=O)(=O)NC4(C)CC4)cc(C4=CCN(C)CC4)c3N21` [Example 131, (R)-1-methyl-9-(1-methyl-1,2,3,6-tetrahydropyridin-4-yl)-4-((1-methyl-1H-pyrazol-4-yl)methyl)-N-(1-methylcyclopropyl)-5-oxo-1,2,4,5-tetrahydroimidazo[1,2-a]quinazoline-7-sulfonamide] gave an IC50 of at most 100 nM.
`[2H]C([2H])(c1cnn(C)c1)N1C(=O)c2cc(S(=O)(=O)NC3(C)CC3)cc(C)c2N2C1=NC[C@H]2C` [Example 132, (R)-1,9-dimethyl-4-((1-methyl-1H-pyrazol-4-yl)methyl-d2)-N-(1-methylcyclopropyl)-5-oxo-1,2,4,5-tetrahydroimidazo[1,2-a]quinazoline-7-sulfonamide] returned a half-inhibitory concentration (IC50) of at most 100 nM.
In turn, `C[C@@H]1CN=C2N(Cc3cnn(C)c3)C(=O)c3cc(S(=O)(=O)NC4(C)CC4)cc(C4=CCOCC4)c3N21` [Example 133, (R)-9-(3,6-dihydro-2H-pyran-4-yl)-1-methyl-4-((1-methyl-1H-pyrazol-4-yl)methyl)-N-(1-methylcyclopropyl)-5-oxo-1,2,4,5-tetrahydroimidazo[1,2-a]quinazoline-7-sulfonamide] yielded an IC50 of at most 100 nM.
`[2H]C([2H])(c1cnn(C)c1)N1C(=O)c2cc(S(=O)(=O)NC3(C)CC3)cc(C(F)(F)F)c2N2C1=NC[C@H]2C` [Example 134, (R)-1-methyl-4-((1-methyl-1H-pyrazol-4-yl)methyl-d2)-N-(1-methylcyclopropyl)-5-oxo-9-(trifluoromethyl)-1,2,4,5-tetrahydroimidazo[1,2-a]quinazoline-7-sulfonamide] displayed an IC50 of at most 100 nM.
As for `C[C@@H]1CN=C2N(Cc3cnn(C)c3)C(=O)c3cc(S(=O)(=O)NC4(C)CC4)cc(-c4ccc(F)nc4)c3N21` [Example 135, (R)-9-(6-fluoropyridin-3-yl)-1-methyl-4-((1-methyl-1H-pyrazol-4-yl)methyl)-N-(1-methylcyclopropyl)-5-oxo-1,2,4,5-tetrahydroimidazo[1,2-a]quinazoline-7-sulfonamide], the figure is at most 100 nM; as for `C[C@@H]1CN=C2N(Cc3cnn(C)c3)C(=O)c3cc(S(=O)(=O)NC4(C)CC4)cc(-c4ccc(F)cc4)c3N21` [Example 136, (R)-9-(4-fluorophenyl)-1-methyl-4-((1-methyl-1H-pyrazol-4-yl)methyl)-N-(1-methylcyclopropyl)-5-oxo-1,2,4,5-tetrahydroimidazo[1,2-a]quinazoline-7-sulfonamide], at most 100 nM.
`[2H]C([2H])(c1cnn(C)c1)N1C(=O)c2cc(S(=O)(=O)NC3(C)CC3)cc(Br)c2N2C1=NC[C@H]2C` [Example 137, (R)-9-bromo-1-methyl-4-((1-methyl-1H-pyrazol-4-yl)methyl-d2)-N-(1-methylcyclopropyl)-5-oxo-1,2,4,5-tetrahydroimidazo[1,2-a]quinazoline-7-sulfonamide] gave an IC50 of at most 100 nM.
